Measurements from patent US10322995B2, “Substituted cyano cycloalkyl penta-2,4-dienes, cyano cycloalkyl pent-2-en-4-ynes, cyano heterocyclyl penta-2,4-dienes and cyano heterocyclyl pent-2-en-4-ynes as active substances against abiotic plant stress” (BAYER CROPSCIENCE AKTIENGESELLSCHAFT, priority 2014, dated 2019).

Legend:
Brassica napus (BRSNS) = assay: In vivo analyses Part A: drought stress, visual damage scoring, efficacy EF (BRSNS); conditions: spray application 250 g/ha, efficacy = reduction in damage intensity
Experimental: (§1) Seeds of monocotyledonous and dicotyledonous crop plants were sown in sandy loam in wood-fibre pots, covered with soil or sand and cultivated in a greenhouse under good growth conditions. The test plants were treated at the early leaf stage (BBCH10-BBCH13). To assure uniform water supply before commencement of stress, the potted plants were supplied with water by dam irrigation prior to substance application. The inventive compounds, formulated in the form of wettable powders (WP), were sprayed onto the green parts of the plants as an aqueous suspension at an equivalent water application rate of 600 I/ha with addition of 0.2% wetting agent (e.g. agrotin). Substance application was followed immediately by stress treatment of the plants. For this purpose, the pots were transferred in plastic inserts in order to prevent them from subsequently drying out too quickly. Drought stress was induced by gradual drying out under the following conditions: “Day”: 14 hours with illumination at 26° C. “Night”: 10 hours without illumination at 18° C. The duration of the respective stress phases was guided mainly by the condition of the stressed control plants. It was ended (by re-irrigating and transfer to a greenhouse with good growth conditions) as soon as irreversible damage was observed on the stressed control plants. The end of the stress phase was followed by an about 4-7-day recovery phase, during which the plants were once again kept under good growth conditions in a greenhouse. The duration of the recovery phase was guided mainly by when the trial plants had attained a state which enabled visual scoring of potential effects, and was therefore variable. Once this juncture was reached, the intensities of damage were scored visually in comparison to untreated, unstressed controls of the same age. The damage intensity was at first assessed in percent. […]

[1] = system: Triticum aestivum (TRZAS); assay: In vivo analyses Part A: drought stress, visual damage scoring, efficacy EF (TRZAS); conditions: spray application 25 g/ha, efficacy = reduction in damage intensity
Experimental: as §1

Zea mays (ZEAMX) = assay: In vivo analyses Part A: drought stress, visual damage scoring, efficacy EF (ZEAMX); conditions: spray application 25 g/ha, efficacy = reduction in damage intensity
Experimental: Seeds of monocotyledonous and dicotyledonous crop plants were sown in sandy loam in wood-fibre pots, covered with soil or sand and cultivated in a greenhouse under good growth conditions. The test plants were treated at the early leaf stage (BBCH10-BBCH13). To assure uniform water supply before commencement of stress, the potted plants were supplied with water by dam irrigation prior to substance application. The inventive compounds, formulated in the form of wettable powders (WP), were sprayed onto the green parts of the plants as an aqueous suspension at an equivalent water application rate of 600 I/ha with addition of 0.2% wetting agent (e.g. agrotin). Substance application was followed immediately by stress treatment of the plants. For this purpose, the pots were transferred in plastic inserts in order to prevent them from subsequently drying out too quickly. Drought stress was induced by gradual drying out under the following conditions: “Day”: 14 hours with illumination at 26° C. “Night”: 10 hours without illumination at 18° C. The duration of the respective stress phases was guided mainly by the condition of the stressed control plants. […] Once this juncture was reached, the intensities of damage were scored visually in comparison to untreated, unstressed controls of the same age. The damage intensity was at first assessed in percent. […]

CCOC(=O)/C=C(/C)C#CC(O)(c1ccccc1)C1(C#N)CC1 (stereo not drawn) [I.1-236, Ethyl (2Z)-6-(1-cyanocyclopropyl)-6-hydroxy-3-methyl-6-phenylhex-2-en-4-ynoate]
>5%: EF [%] (BRSNS) (Brassica napus (BRSNS)) | EF [%] (TRZAS) [1] | EF [%] (ZEAMX) (Zea mays (ZEAMX))
